This note sets out measurements from publication PMC6321543, “Cloning, Characterization and Anion Inhibition Studies of a β-Carbonic Anhydrase from the Pathogenic Protozoan Entamoeba histolytica” (Molecules, 2018).

The target of one experiment is T1, EhiCA (Entamoeba histolytica, UniProt C4LXK3).
T1 construct: gene EHI_073380; His-tag cleaved with thrombin; 21 kDa (21/25 kDa doublet); one Zn per chain; Zn ligands Cys50, His103, Cys106, dyad Asp52-Arg54; dimer and trimer seen on SDS-PAGE
T1 sequence (C4LXK3 1-188): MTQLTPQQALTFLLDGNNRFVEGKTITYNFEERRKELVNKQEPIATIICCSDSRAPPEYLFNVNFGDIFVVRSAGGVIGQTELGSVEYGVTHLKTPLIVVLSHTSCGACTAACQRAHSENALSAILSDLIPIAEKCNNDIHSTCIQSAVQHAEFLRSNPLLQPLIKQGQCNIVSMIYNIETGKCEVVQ
Put plainly: biochemical.
Conditions: not given
As usually defined, the Ki is the dissociation constant of the complex between target and ligand, obtained from inhibition or displacement. For the compound `I` [I^−], the Ki turned out to be 7.4 mM.
`O=P(O)(O)OP(=O)(O)O` [P2O7^4−]: the Ki is above 100 mM.
Still for that read-out and setting: then `N#CS` [SCN^−], with 7.9 mM; and `O=S(=O)(O)O` [SO4^2−], with 21.6 mM.

The experiment is the same for the next values; noted with them: CO2 hydration, TRIS pH 8.3, 20 °C (methods: 25 °C), 0.1 M NaClO4, 15 min pre-incubation; as sodium salt; read-out: KI [mM] ^#.
With `F[P-](F)(F)(F)(F)F` [PF6^−], the inhibition constant Ki is above 100 mM.

Staying with this experiment, now noted: read-out: KI [mM] ^#.
As for `F[B-](F)(F)F` [BF4^−], the inhibition constant Ki is above 100 mM.
Same read-out and setting: then `Br` [Br^−], with 36.8 mM.
In the case of `O=S(=O)(O)C(F)(F)F` [CF3SO3^−], the inhibitory constant (Ki) was above 100 mM.
Take `N#CO` [CNO^−]: the inhibition constant Ki came out at 0.77 mM.
On to `S=C(S)S` [CS3^2−], for which the inhibitory constant (Ki) was 6 mM.
Turning to `[O-][Cl+3]([O-])([O-])O` [ClO4^−], the inhibition constant (Ki) is above 100 mM.
On to `Cl` [Cl^−], for which the Ki was above 100 mM.
For the compound `CCN(CC)C(=S)S` [Et2NCS2^−], the inhibition constant Ki came out at 0.51 mM.
Take `O=S(=O)(O)F` [FSO3^−]: the Ki amounted to 0.086 mM.
As for `F` [F^−], the Ki is above 100 mM.
In the case of `NS(N)(=O)=O` [H2NSO2NH2], the inhibition constant (Ki) amounted to 0.028 mM.
As to `NS(=O)(=O)O` [H2NSO3H], the Ki is above 100 mM.
The same measure, in the same setting: under `O=S(O)O` [HSO3^−] stands 11.5 mM; under `S` [HS^−], 6.9 mM; under `O=S(=O)(O)NS(=O)(=O)O` [NH(SO3)2^2−], 2.2 mM.
Take `O=NO` [NO2^−]: the inhibition constant (Ki) stood at 1.7 mM.
Still for that read-out and setting: then `O=[N+]([O-])O` [NO3^−], with 3.6 mM; and `OB(O)c1ccccc1` [Ph-B(OH)2], with 0.047 mM; and `[O]=[Re](=[O])(=[O])[OH]` [ReO4^−], with 7.1 mM.
In the case of `[O]=[Ru](=[O])(=[O])[OH]` [RuO4^−], the inhibitory constant (Ki) was 7 mM.
Regarding `O=S(=O)(O)OOS(=O)(=O)O` [S2O8^2−], the inhibition constant (Ki) came to 8.4 mM.
On the same count and under the same terms, then `N#C[SeH]` [SeCN^−], with 0.87 mM; and `O=[Se](=O)(O)O` [SeO4^2−], with 6 mM.
Still for that read-out and setting: under `O=[Te](=O)(O)O` [TeO4^2−] stands 0.61 mM; under `[O]=[V]([OH])([OH])[O][V](=[O])([OH])[OH]` [V2O7^4−], above 100 mM.
